Experimental data taken from PMC3877906, “Polypeptide Modulators of TRPV1 Produce Analgesia without Hyperthermia” (Marine Drugs, 2013).
“Also recorded” adds a separate entry of the source.

Legend:
TRPV3 = TRPV3 activity, oocyte electrophysiology or agonist-induced fluorescence readout; type: cell-based; conditions: concentrations of up to 2 μM; data not shown
[1] = tested on: TRPV1-dependent normal and diabetic bladder smooth muscle contractility; conditions: ref [17]; cited from earlier work
Excerpt: (§1) Polypeptide molecules typically have a greater specific activity at a particular receptor than do small molecule agonists, which makes them attractive for researchers and pharmaceutical companies. We have previously reported the isolation of a polypeptide modulator of TRPV1 from a homogenized extract of the sea anemone Heteractis crispa named APHC1 and its partial in vivo characterization. Two homological polypeptides (APHC2 and APHC3) were subsequently found in the same extract, but their biological activity has not yet been properly characterized. APHC1 and APHC3 are weak ...

serine proteases = conditions: ref [14],[16]; cited from earlier work
Excerpt: as §1

CD-1 mice [2] = assay: acetic acid-induced writhing (abdominal constriction test of visceral pain); type: in vivo, mouse
Procedure: TRPV1 can be activated by low pH stimuli and is therefore involved in pain caused by acidification, which can be measured in the pain behavior model of acetic acid-induced writhing. Intraperitoneal administration of acetic acid provokes a very stereotyped behavior in the mouse. The constriction response is considered the definitive measure of visceral pain intensity. Animals were pretreated with polypeptides 15 min before acetic acid injection.
(§2) All experiments were performed in accordance with the recommendations in the “Principles of Laboratory Animal Care” and after approval by the Animal Care and Use Committee of the Branch of the IBCh RAS (Pushchino, Russia). Adult male CD-1 mice (Animal Breeding Facility Branch of Shemyakin-Ovchinnikov Institute of Bioorganic Chemistry, Russian Academy of Sciences, Pushchino, Russia) weighing 20–25 g were used. Animals were allowed to acclimate in the laboratory for at least five days. Mice were housed at room temperature (23 ± 2 °C) on a 12 h light–dark cycle with food and water available ad libitum. Polypeptides or vehicle was administered intravenously 15 min before testing.
(§3) The significance of the data was determined by analysis of variance (ANOVA) followed by Tukey’s test. Data are presented as mean ± S.E.
Separate groups of mice were injected with 0.6% acetic acid in saline (10 mL∙kg^−1 intraperitoneally (i.p.)). Mice were immediately placed inside transparent glass cylinders, and the number of writhes was recorded for 15 min.

TRPV1 = type: cell-based, rat; conditions: for effect on capsaicin-induced TRPV1 response: whole-cell patch clamp, HEK-293
Procedure: Figure 2 Effects of APHC3 on recombinant TRPV1 expressed in HEK-293 cells. (a) Resting current recorded from a TRPV1-positive cell held at −30 mV. […] Straight lines above the recording indicate application of APHC3 (Long line) and capsaicin (Short lines). The cells were stimulated and rinsed by rapid switching of the bath solution between the control solution and solutions containing the indicated compound. (b) Capsaicin responses in control and in the presence of the 300 nM APHC3 peptide. In each case, the control response was calculated as an average of two acid responses recorded just prior to peptide application. Averaged responses recorded in the presence of APHC3 were normalized to averaged control responses. Those are presented as the mean ± s.d. (n = 4). […] (c, d) Cell responses to the acidification of the bath solution from pH 7.4 to pH 5.5 in control and in the presence of the APHC3 applied at different concentrations as indicated. The experimental traces in (c) and in (d, upper trace) illustrate representative responses of EGFP/TRPV1-positive cells. The bottom trace in (d) represents responses of an EGFP/TRPV1-negative cell assayed simultaneously. (e) Acid responses recorded in the presence of APHC3 (90, 160 and 240 nM) normalized to a control response. The data are presented as the mean ± s.d. (n = 5–10). […] In each case, the control response was calculated as an average of the two acid responses recorded just prior to peptide application. The average of the two acid responses recorded after peptide application was calculated and normalized to the control response. Experimental traces in (c, d) were obtained from three different cells. The changes in bath solution pH (continuous lines) and APHC3 applications (thick straight lines) are shown above the fluorescence traces. Cells were stimulated and rinsed by a rapid replacement of the control bath solution with modified bath solution at pH 5.5 with or without APHC3.
HEK-293 cells were cultured in Dulbecco’s modified Eagle’s medium (DMEM) (Life Technologies, Grand Island, NY, USA) containing 10% (vol/vol) fetal bovine serum (Thermo Fisher Scientific, Palm Beach, FL, USA), glutamine (1%) and the antibiotic gentamicin (100 μg/mL) (Life Technologies, Grand Island, NY, USA). The pIRES2-EGFP plasmid harboring rat TRPV1 cDNA was transiently transfected into HEK-293 cells by replacing the growth medium in each well with a transfection mixture, containing 1.6 μg of DNA and 4 μL of Lipofectamine (Life Technologies, Grand Island, NY, USA) in 1 mL of serum-free DMEM. After incubating for 6 h, the transfection mixture was replaced with normal culture medium. Cells were assayed within 48–96 h after transfection.
Ion currents were recorded using an Axopatch 200A amplifier, with a DigiData 1322A interface, and pClamp8 software (Molecular Devices, Downingtown, PA, USA). External solutions were delivered by a gravity-driven perfusion system at a rate of 0.1 mL/s. Generally, the whole-cell patch clamp approach was used with recording pipettes containing (mM): 140 CsCl, 1 MgATP, 10 BAPTA, 10 HEPES-CsOH (pH 7.2). The basic bath solution included the following (mM): 140 NaCl, 5 KCl, 1 MgCl2, 1 CaCl2, 10 HEPES-NaOH (pH 7.4).

CD-1 mice [3] = assay: capsaicin-induced acute pain test; type: in vivo, mouse; conditions: n = 9; for pain-related behavior after capsaicin, reduction: 0.1 mg/kg i.v. 15 min before intraplantar capsaicin (3 µg/10 µL), "~44% of response"; for pain-related behavior after capsaicin, in words: 0.1 mg/kg i.v., vs saline
Excerpt: Because capsaicin is a selective agonist of the TRPV1 receptor, we tested the efficacy of APHC1 and APHC3 as TRPV1 receptor antagonists using the capsaicin-induced pain model. Intraplantar injection of capsaicin evokes pain-related behavior such as licking and shaking the injected paw. TRPV1 knockout mice are insensitive to the capsaicin test and most antagonists that block capsaicin-induced currents in vitro also block capsaicin induced pain-related behavior in mice.
as §2, §3
Intraplantar injection of capsaicin (3 µg/10 µL in 10% ethanol/90% saline) was used to elicit capsaicin-induced acute pain [36]. Immediately after the capsaicin injection, mice were placed inside glass cylinders for observation. Intraplantar injection of capsaicin evoked licking and shaking of the injected paw in mice. The duration of episodes of licking and paw shaking were recorded.

[4] = 0.1 mg/kg i.v., n = 9, vs saline

Substance	agonistic/antagonistic activity at TRPV3 (TRPV3)	modulation of TRPV1-dependent normal and diabetic bladder smooth muscle contractility [1]	inhibition of serine proteases (serine proteases)	number of writhes, in words (CD-1 mice [2]; [4])	number of writhes, in words (CD-1 mice [2]; 0.5 mg/kg i.v.)	effect on capsaicin-induced TRPV1 response (TRPV1; 100 nM capsaicin)	pain-related behavior after capsaicin, reduction (CD-1 mice [3])	pain-related behavior after capsaicin, in words (CD-1 mice [3])	inhibition of number of writhes (CD-1 mice [2]; 0.1 and 0.5 mg/kg i.v. 15 min before 0.6% acetic acid i.p., n = 9) [%]	inhibition of TRPV1 currents (TRPV1; 100 nM capsaicin, 300 nM APHC3, whole-cell, held at −30 mV, pH 7.4 bath, four experiments (n = 4)) [%]	inhibitory effect on capsaicin-induced currents (TRPV1; concentrations more than 300 nM) [%]
APHC1: polypeptide modulator of TRPV1 from sea anemone Heteractis crispa; homologous to BPTI/Kunitz type serine-protease inhibitors; produced recombinantly in E. coli (GSICLEPKVVGPCTAYFRRFYFDSETGKCTVFIYGGCEGNGNNFETLRACRAICRA; left off: TRX, end not stated, cleaved)	neither agonistic nor antagonistic activity	modulate	weak inhibitors	did not produce a statistically significant effect; also recorded: did not significantly inhibit the response to acetic acid	significantly reduced number of writhes	partially blocked the capsaicin-induced response	~ 44%	significantly reduced the behavioral response to capsaicin; also recorded: significantly reduced pain-related behavior	–	–	–
APHC3: polypeptide from Heteractis crispa highly homologous to APHC1, differing in four of 56 amino acids; produced recombinantly in E. coli (GSICLEPKVVGPCTAYFPRFYFNSETGKCTPFIYGGCEGNGNNFETLRACRGICRA; left off: TRX, end not stated, cleaved)	neither agonistic nor antagonistic activity	modulate	weak inhibitors	significantly reduced the number of writhes	–	partially blocked the capsaicin-induced response	~ 44%	significantly reduced the behavioral response to capsaicin; also recorded: significantly reduced pain-related behavior	50	~25	25
